Measurements taken from patent US20130040908A1, “SUBSTITUTION DERIVATIVES OF N6-BENZYLADENOSINE-5' -MONOPHOSPHATE, METHODS OF PREPARATION THEREOF, USE THEREOF AS MEDICAMENTS, AND THERAPEUTIC PREPARATIONS CONTAINING THESE COMPOUNDS” (BIOAPEX, S.R.O., priority 2010, published 2013).

Experiments:
p21^WAF-1 = experiment: p21WAF-1 induction in MCF-7 cells (immunoblot); type: cell-based; details: MCF-7, 0-100 μM 12 hours; 1 μM 0.5-24 hours
Method: MCF-7 cells cultured at 37° C. in 5% CO2 atmosphere in DMEM medium supplemented with 10% foetal calf serum were treated with compound 28 concentration ranges of 0-100 μM. Compound 28 was added into the medium from the 100 mM stock solution in DMSO. Cells were harvested 12 hours after incubation with compound 28, centrifuged (1000 rpm, 4° C., 5 min), washed twice by ice-cold PBS and re-centrifuged. These washed cells were then lysed by 1×CSB (loading buffer for SDS-PAGE, i.e. electrophoresis of proteins in polyacrylamide gel containing SDS). Cell lysate proteins were separated by SDS-PAGE and transferred onto a nitrocelulose (NC) membrane. NC membrane was blocked by 5% skimmed milk, 0.1% Tween 20 in PBS. Protein level of p21^WAF-1 and actin (as a loaded protein volume control) were detected immunochemically using commercially available specific monoclonal antibodies anti-p21^WAF-1 (Ab-1, Calbiochem) and anti-Actin (Clone AC-40, Sigma-Aldrich). The primary antibodies bind to target proteins were detected using rabbit secondary peroxidase-labeled antibody (RAM-Px, DAKO), followed by chemiluminiscence (ECL, Amersham-Pharmacia).

Human lymphocytes = experiment: Immunosuppressive activity, 3H-thymidine incorporation in concanavalin A activated lymphocytes; type: cell-based; details: 72 hours, [3H]-TdR
From the text: One of the most important parameters of specific cellular immunity is the proliferative response of lymphocytes to antigens or polyclonal mitogens. The majority of normal mammalian peripheral lymphocytes comprise resting cells. Antigens or nonspecific polyclonal mitogens have the capacity to activate lymphoid cells and this is accompanied by dramatic changes of intracellular metabolism (mitochondrial activity, protein synthesis, nucleic acids synthesis, formation of blastic cells and cellular proliferation). […] Variety of in vitro assays was developed to measure proliferative response of lymphocytes. The most commonly used is ^3H-thymidine incorporation method.
During cell proliferation, DNA has to be replicated before the cell is divided into two daughter cells. This close association between cell doublings and DNA synthesis is very attractive for assessing cell proliferation. If labelled DNA precursors are added to the cell culture, cells that are about to divide incorporate the labelled nucleotide into their DNA. Traditionally, those assays usually involve the use of radiolabelled nucleosides, particularly tritiated thymidine ([^3H]-TdR). The amount of [^3H]-TdR incorporated into the cellular DNA is quantified by liquid scintillation counting. Human heparinized peripheral blood was obtained from healthy volunteers by cubital vein punction. The blood was diluted in PBS (1:3) and mononuclear cells were separated by centrifugation in Ficoll-Hypaque density gradient (Pharmacia, 1.077 g/ml) at 2200 rpm for 30 minutes. Following centrifugation, lymphocytes were washed in PBS and resuspended in cell culture medium (RMPI 1640, 2 mM glutamine, 100 U/ml penicillin, 100 μg/ml streptomycin, 10% fetal calf serum and sodium bicarbonate).
The cells were diluted at target density of 1.100.000 cells/ml and were added by pipette (180 μl) into 96-well microtiter plates. Four-fold dilutions of the intended test concentration were added at time zero in 20 μl aliquots to the microtiter plate wells. Usually, test compound was evaluated at six 4-fold dilutions. In routine testing, the highest well concentration was 266.7 μM. All drug concentrations were examined in duplicates. All wells with exception of unstimulated controls were activated with 50 of concanavalin A (25 μg/ml). Incubations of cells with test compounds lasted for 72 hours at 37° C., in 5% CO2 atmosphere and 100% humidity. At the end of incubation period, the cells were assayed by using the [^3H]-TdR:
Cell cultures were incubated with 0.5 μCi (20 μl of stock solution 500 μCi/ml per well for 6 hours at 37° C. and 5% CO2. The automated cell harvester was used to lyse cells in water and adsorb the DNA onto glass-fiber filters in the format of microtiter plate. The DNA incorporated [^3H]-TdR was retained on the filter while unincorporated material passes through. The filters were dried at room temperature overnight, sealed into a sample bag with 10-12 ml of scintillant. The amount of [^3H]-TdR present in each filter (in cpm) was determined by scintillation counting in a Betaplate liquid scintillation counter. The effective dose of immunosuppressant (ED) was calculated using the following equation: ED=(CCPMdrug exposed well/mean CCPMcontrol wells)×100%. The ED50 value, the drug concentration inhibiting proliferation of 50% of lymphocytes, was calculated from the obtained dose response curves.

COc1cccc(CNc2ncnc3c2ncn3[C@@H]2O[C@H](COP(=O)(O)O)[C@@H](O)[C@H]2O)c1O [Compound 28, 6-(2-hydroxy-3-methoxybenzylamino)purine riboside-5′-monophosphate]
p21^WAF-1 protein induction (p21^WAF-1): efficient p21^WAF-1 protein induction | Human lymphocytes ED50 (Human lymphocytes): 1200 nM
